Patent US20230398334A1, “COATED BALLOON CATHETER FOR TREATING ARTERIOVENOUS FISTULA AND METHODS OF USING SAME” (Alucent Biomedical, Inc., priority 2022, published 2023)

System: arteriovenous fistula (AVF)
Assay: Treatment of an AVF with the active agent (NVS treatment)
Assay type: in vivo

Structure (SMILES): NCCOCCOCCNc1ccc2c3c(cccc13)C(=O)N(CCOCCOCCN1C(=O)c3cccc4c(NCCOCCOCCN)ccc(c34)C1=O)C2=O [Compound of Formula (I), 2,2′-((ethane-1,2-diylbis(oxy))bis(ethane-2,1-diyl))bis(6-((2-(2-(2-aminoethoxy)ethoxy)ethyl)amino)-1H-benzo[de]isoquinoline-1,3(2H)-dione)]
- AVF open lumen area: significant increase
- area of neointimal hyperplasia: without significantly affecting
